Results taken from publication PMC10763578 (Cell host & microbe, 2023).

Target: CgaA (cytosolic glutathione amidotransferase A; FTN_0435) (Francisella tularensis, UniProt A0Q523)
Conditions: 10 mM substrate, 1 uM enzyme, 60 min, 300 mM NaCl, 50 mM Tris-Cl pH 8.5, 37 °C

Sequence of CgaA (cytosolic glutathione amidotransferase A; FTN_0435) (A0Q523 1-235): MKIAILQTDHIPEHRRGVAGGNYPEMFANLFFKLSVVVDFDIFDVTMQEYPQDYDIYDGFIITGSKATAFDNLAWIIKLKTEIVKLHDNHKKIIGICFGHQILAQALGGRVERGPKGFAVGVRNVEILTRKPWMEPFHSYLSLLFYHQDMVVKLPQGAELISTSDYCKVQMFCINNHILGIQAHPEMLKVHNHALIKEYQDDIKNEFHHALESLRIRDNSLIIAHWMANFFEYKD

NC(=O)CC[C@H](N)C(=O)O [Gln, glutamine]
glutamate release, coupled colorimetric kit (A450): we detected only a low level of glutamate accumulation following incubation of CgaA with glutamine
